We go through 24 molecules from patent publication US12617813B2, “Glycosylated histone deacetylase inhibitors and methods of making and using the same” (Georgia Tech Research Corporation, priority 2020, dated 2026).

One experiment deals with HDAC1 (Homo sapiens, UniProt Q13547). Description: HDAC inhibition, HDAC1. The format is biochemical.
In a further experiment the target is HDAC2 (Homo sapiens, UniProt Q92769). Description: HDAC inhibition, HDAC2. The format is biochemical.
The next experiment addresses T1, HDAC6 (Homo sapiens, UniProt Q9UBN7).
T1 sequence (Q9UBN7 1-1215): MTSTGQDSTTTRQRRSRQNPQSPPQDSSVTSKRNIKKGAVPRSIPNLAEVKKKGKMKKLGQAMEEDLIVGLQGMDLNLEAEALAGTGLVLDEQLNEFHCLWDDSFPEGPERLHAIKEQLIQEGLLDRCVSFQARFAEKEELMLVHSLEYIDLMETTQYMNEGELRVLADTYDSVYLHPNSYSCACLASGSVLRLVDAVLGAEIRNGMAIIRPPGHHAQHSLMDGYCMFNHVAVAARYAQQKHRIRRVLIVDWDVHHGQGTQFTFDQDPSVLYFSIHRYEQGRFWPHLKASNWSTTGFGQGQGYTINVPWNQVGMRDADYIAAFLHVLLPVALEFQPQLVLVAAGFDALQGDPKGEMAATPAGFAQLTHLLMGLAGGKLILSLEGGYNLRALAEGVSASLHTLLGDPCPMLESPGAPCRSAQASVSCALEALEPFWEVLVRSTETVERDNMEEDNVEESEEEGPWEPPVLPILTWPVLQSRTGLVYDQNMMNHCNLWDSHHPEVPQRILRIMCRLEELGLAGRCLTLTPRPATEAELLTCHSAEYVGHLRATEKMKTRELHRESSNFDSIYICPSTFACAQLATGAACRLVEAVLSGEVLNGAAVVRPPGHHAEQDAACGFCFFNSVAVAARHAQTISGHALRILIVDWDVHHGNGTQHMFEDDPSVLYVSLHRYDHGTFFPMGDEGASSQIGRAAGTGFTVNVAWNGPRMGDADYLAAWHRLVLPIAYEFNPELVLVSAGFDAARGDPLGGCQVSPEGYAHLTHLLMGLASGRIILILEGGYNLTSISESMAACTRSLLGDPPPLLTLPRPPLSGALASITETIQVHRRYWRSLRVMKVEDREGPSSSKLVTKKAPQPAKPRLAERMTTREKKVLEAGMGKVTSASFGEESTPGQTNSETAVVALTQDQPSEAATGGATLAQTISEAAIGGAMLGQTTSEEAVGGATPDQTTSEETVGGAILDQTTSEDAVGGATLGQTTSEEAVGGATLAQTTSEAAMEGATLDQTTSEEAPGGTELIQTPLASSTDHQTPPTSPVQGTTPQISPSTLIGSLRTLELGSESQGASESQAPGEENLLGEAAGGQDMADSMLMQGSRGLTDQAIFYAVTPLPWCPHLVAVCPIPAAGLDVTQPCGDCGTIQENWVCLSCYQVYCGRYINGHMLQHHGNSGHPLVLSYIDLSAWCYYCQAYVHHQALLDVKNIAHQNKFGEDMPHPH
Briefly: HDAC inhibition, HDAC6. The format is biochemical.

Another experiment deals with T2, HDAC8 (Homo sapiens, UniProt Q9BY41).
T2 sequence (Q9BY41 1-377): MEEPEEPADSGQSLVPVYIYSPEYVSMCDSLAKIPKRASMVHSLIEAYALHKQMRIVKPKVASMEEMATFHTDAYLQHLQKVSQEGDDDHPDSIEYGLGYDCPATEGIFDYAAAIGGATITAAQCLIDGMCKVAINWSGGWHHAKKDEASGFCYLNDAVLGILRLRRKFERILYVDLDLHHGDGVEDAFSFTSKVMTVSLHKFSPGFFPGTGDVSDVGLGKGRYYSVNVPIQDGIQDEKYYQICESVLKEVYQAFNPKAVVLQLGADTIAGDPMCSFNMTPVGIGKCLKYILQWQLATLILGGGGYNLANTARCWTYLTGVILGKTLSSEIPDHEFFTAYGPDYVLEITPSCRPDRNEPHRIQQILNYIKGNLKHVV
Briefly: HDAC inhibition, HDAC8. The format is biochemical.

In a further experiment the test system is A549. Briefly: Cell growth inhibition, A549. The format is cell-based. To be noted: Homo sapiens, NI = No Inhibition at 100 uM.
For the next experiment, the system named is Hep-G2. Description: Cell growth inhibition, Hep-G2. It counts as cell-based. To be noted: Homo sapiens, HepG2, NI = No Inhibition at 100 uM.
Another experiment relates to VERO. Description: Cell growth inhibition, VERO. The note with it: Chlorocebus sabaeus, NI = No Inhibition at 100 uM. The format is cell-based.

A word on the IC50: it is the concentration that inhibits the measured activity by half. Read a high IC50 as a need for much substance.

HDAC2, sequence (Q92769 whole entry): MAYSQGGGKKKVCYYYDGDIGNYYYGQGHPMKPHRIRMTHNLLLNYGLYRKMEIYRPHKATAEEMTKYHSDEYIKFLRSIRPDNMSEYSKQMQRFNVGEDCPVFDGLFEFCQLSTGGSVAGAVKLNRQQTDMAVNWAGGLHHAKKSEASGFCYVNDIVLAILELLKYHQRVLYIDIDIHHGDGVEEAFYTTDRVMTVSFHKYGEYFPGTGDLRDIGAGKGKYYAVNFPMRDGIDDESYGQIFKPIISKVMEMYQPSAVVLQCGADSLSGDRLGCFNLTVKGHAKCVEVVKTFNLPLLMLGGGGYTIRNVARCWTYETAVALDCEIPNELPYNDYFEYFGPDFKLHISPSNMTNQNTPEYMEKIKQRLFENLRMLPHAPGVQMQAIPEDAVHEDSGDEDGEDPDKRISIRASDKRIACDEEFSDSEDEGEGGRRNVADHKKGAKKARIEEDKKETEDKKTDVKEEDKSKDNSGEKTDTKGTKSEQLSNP
HDAC1, sequence (Q13547 whole entry): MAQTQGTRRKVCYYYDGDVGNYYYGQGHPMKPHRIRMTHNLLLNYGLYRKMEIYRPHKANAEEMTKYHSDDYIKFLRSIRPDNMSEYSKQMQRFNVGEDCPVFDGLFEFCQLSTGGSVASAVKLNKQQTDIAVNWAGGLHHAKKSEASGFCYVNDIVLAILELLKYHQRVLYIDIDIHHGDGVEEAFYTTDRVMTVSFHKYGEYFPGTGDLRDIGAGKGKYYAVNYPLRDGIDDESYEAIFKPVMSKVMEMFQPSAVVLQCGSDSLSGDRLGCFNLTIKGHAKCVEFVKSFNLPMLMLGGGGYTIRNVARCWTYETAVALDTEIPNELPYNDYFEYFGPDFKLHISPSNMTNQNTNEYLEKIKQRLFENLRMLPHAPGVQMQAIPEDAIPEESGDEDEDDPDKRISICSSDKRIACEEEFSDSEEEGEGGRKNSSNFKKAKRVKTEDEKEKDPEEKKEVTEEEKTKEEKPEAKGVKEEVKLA

Turning to `CC(=O)OC[C@H]1OC(Oc2ccc(-c3cn(CCCCCCC(=O)NO)nn3)cc2)C(OC(C)=O)[C@@H](OC(C)=O)[C@@H]1OC(C)=O` (stereo in doubt) [STR-V-176, (2R,3R,4S,5R,6S)-2-(acetoxymethyl)-6-(4-(1-(7-(hydroxyamino)-7-oxoheptyl)-1H-1,2,3-triazol-4-yl)phenoxy)tetrahydro-2H-pyran-3,4,5-triyl triacetate], the IC50 on HDAC1 is 1.43 nM; on HDAC2, 4.2 nM; against HDAC6, 1.05 nM; at HDAC8, 271 nM.

Regarding `CC(=O)OC[C@H]1OC(Oc2ccc3cc(-c4cn(CCCCCCC(=O)NO)nn4)ccc3c2)C(OC(C)=O)[C@@H](OC(C)=O)[C@@H]1OC(C)=O` (stereo in doubt) [STR-V-177, (2R,3R,4S,5R,6S)-2-(acetoxymethyl)-6-((6-(1-(7-(hydroxyamino)-7-oxoheptyl)-1H-1,2,3-triazol-4-yl)naphthalen-2-yl)oxy)tetrahydro-2H-pyran-3,4,5-triyl triacetate], the half-inhibitory concentration (IC50) at HDAC1 worked out at 2.2 nM; on HDAC2 it was 13.2 nM; against HDAC6 it was 1.65 nM; against HDAC8, 718 nM.

As for `CC(=O)OC[C@H]1O[C@H](Oc2ccc(-c3cn(CCCCCCC(=O)NO)nn3)cc2)[C@H](OC(C)=O)[C@@H](OC(C)=O)[C@@H]1OC(C)=O` [Compound 1], the half-inhibitory concentration (IC50) with A549 is greater than 100 µM; with Hep-G2, 10.1 ± 1.2 µM; with VERO, greater than 100 µM.

For `O=C(CCCCCCn1cc(-c2ccc(O[C@H]3O[C@H](CO)[C@@H](O)[C@H](O)[C@H]3O)cc2)nn1)NO` [Compound 2], the IC50 with A549 was determined as 100 ± 0.1 µM; with Hep-G2 it was 10.4 ± 0.6 µM; in the experiment on VERO, 76.4 ± 0.2 µM.

For `O=C(CCCCCCn1cc(-c2ccc3cc(O[C@H]4O[C@H](CO)[C@@H](O)[C@H](O)[C@H]4O)ccc3c2)nn1)NO` [Compound 3], the IC50 came out at 77.2 ± 4.3 µM in the experiment on A549, 6.7 ± 1.6 µM in the experiment on Hep-G2 and 34.1 ± 3 µM in the experiment with VERO.

`CC(=O)OC[C@H]1O[C@H](Oc2ccc(-c3cn(CCCCCCC(=O)NO)nn3)cc2)[C@@H](OC(C)=O)[C@@H](OC(C)=O)[C@@H]1OC(C)=O` [Compound 4]: the 50% inhibitory concentration (IC50) in the experiment with A549 stood at 64.7 ± 7 µM; in the experiment on Hep-G2, 8 ± 0.9 µM; in the experiment with VERO, 77.4 ± 5.6 µM.

As to `O=C(CCCCCCn1cc(-c2ccc(O[C@H]3O[C@H](CO)[C@@H](O)[C@H](O)[C@@H]3O)cc2)nn1)NO` [Compound 5], the IC50 with A549 was greater than 100 µM; in the experiment on Hep-G2, 22.3 ± 2 µM; in the experiment with VERO it was 65.5 ± 8.3 µM.

In the case of `CC(=O)OC[C@H]1O[C@H](Oc2ccc3cc(-c4cn(CCCCCCC(=O)NO)nn4)ccc3c2)[C@@H](OC(C)=O)[C@@H](OC(C)=O)[C@@H]1OC(C)=O` [Compound 6], the figures for the IC50 in the experiment with A549, with Hep-G2 and in the experiment on VERO were 39.6 ± 0.6 µM, 7.4 ± 0.9 µM and 19.2 ± 0.9 µM, respectively.

`O=C(CCCCCCn1cc(-c2ccc3cc(O[C@H]4O[C@H](CO)[C@@H](O)[C@H](O)[C@@H]4O)ccc3c2)nn1)NO` [Compound 7]: the figures for the IC50 with A549, in the experiment with Hep-G2 and in the experiment on VERO were 20.1 ± 1.1 µM, 7.5 ± 0.8 µM and 33.6 ± 5.5 µM, respectively.

Take `O=C(/C=C/c1ccc2cc(O[C@H]3O[C@H](CO)[C@@H](O)[C@H](O)[C@H]3O)ccc2c1)NO` [Compound 8]: the values for the IC50 in the experiment with A549, in the experiment with Hep-G2 and in the experiment with VERO were greater than 100 µM, 66.1 µM and 82.1 µM, respectively.

Turning to `O=C(CCCCCn1cc(-c2ccc3cc(O[C@H]4O[C@H](CO)[C@@H](O)[C@H](O)[C@@H]4O)ccc3c2)nn1)NO` [Compound 9], the 50% inhibitory concentration (IC50) was 66.7 ± 16.1 µM in the experiment on A549, 13.5 ± 2.7 µM in the experiment on Hep-G2 and greater than 100 µM in the experiment on VERO.

On to `O=C(CCCCCn1cc(-c2ccc(O[C@H]3O[C@H](CO)[C@@H](O)[C@H](O)[C@@H]3O)cc2)nn1)NO` [Compound 10], for which the half-maximal inhibitory concentration (IC50) is greater than 100 µM in the experiment with A549, 42.8 ± 0.5 µM in the experiment on Hep-G2 and greater than 100 µM in the experiment with VERO.

`O=C(/C=C/c1ccc2cc(O[C@H]3O[C@H](CO)[C@@H](O)[C@H](O)[C@@H]3O)ccc2c1)NO` [Compound 11]: the figures for the IC50 in the experiment on A549, in the experiment on Hep-G2 and with VERO were greater than 100 µM, 78.5 ± 11.6 µM and greater than 100 µM, respectively.

On to `O=C(/C=C/c1ccc(O[C@H]2O[C@H](CO)[C@@H](O)[C@H](O)[C@H]2O)cc1)NO` [Compound 12], for which the IC50 in the experiment with A549 is greater than 100 µM; with Hep-G2, 45.3 ± 5.9 µM; in the experiment on VERO it was greater than 100 µM.

As for `C[C@H]1C[C@@H](N(C)C)[C@H](O)C(Oc2ccc(-c3cn(CCCCCCC(=O)NO)nn3)cc2)O1` (stereo partly shown) [Compound 13], the IC50 with A549 was found to be 33.7 ± 1.8 µM; in the experiment with Hep-G2, 9.6 ± 3.4 µM; in the experiment with VERO it was 76.4 µM.

As for `Nc1ccc(F)cc1NC(=O)CCCCCCn1cc(-c2ccc(O[C@H]3O[C@H](CO)[C@@H](O)[C@H](O)[C@H]3O)cc2)nn1` [Compound 14], the IC50 was 59.9 µM with A549 and greater than 100 µM in the experiment with VERO.

On to `Nc1cc(F)ccc1NC(=O)CCCCCCn1cc(-c2ccc(O[C@H]3O[C@H](CO)[C@@H](O)[C@H](O)[C@H]3O)cc2)nn1` [Compound 15], for which the IC50 in the experiment on A549 is greater than 100 µM; in the experiment on Hep-G2 it was roughly 100 µM; in the experiment on VERO, greater than 100 µM.

With `Nc1ccc(-c2cccs2)cc1NC(=O)CCCCCCn1cc(-c2ccc(O[C@H]3O[C@H](CO)[C@@H](O)[C@H](O)[C@H]3O)cc2)nn1` [Compound 16], the values for the IC50 in the experiment with A549, in the experiment on Hep-G2 and in the experiment with VERO were 49.5 µM, greater than 100 µM and greater than 100 µM, respectively.

On to `O=C(CCCCCn1cc(-c2ccc(O[C@H]3O[C@H](CO)[C@@H](O)[C@H](O)[C@@H]3O)cc2)nn1)NO` [STR-II-29], for which the half-maximal inhibitory concentration (IC50) on HDAC1 was 68.2 nM; against HDAC2 it was 146 nM; at HDAC6 it was 6.45 nM; on HDAC8, 3590 nM.

As to `O=C(CCCCCn1cc(-c2ccc3cc(O[C@H]4O[C@H](CO)[C@@H](O)[C@H](O)[C@@H]4O)ccc3c2)nn1)NO` [STR-II-35], the IC50 against HDAC1 was found to be 26.8 nM; on HDAC2, 47.1 nM; on HDAC6, 2.03 nM; on HDAC8, 1970 nM.

With `O=C(CCCCCCn1cc(-c2ccc3cc(O[C@H]4O[C@H](CO)[C@@H](O)[C@H](O)[C@@H]4O)ccc3c2)nn1)NO` [STR-II-36], the concentration for half-maximal inhibition (IC50) came out at 3.28 nM against HDAC1, 10.4 nM on HDAC2, 0.719 nM against HDAC6 and 319 nM against HDAC8.

Turning to `O=C(/C=C/c1ccc2cc(O[C@H]3O[C@H](CO)[C@@H](O)[C@H](O)[C@H]3O)ccc2c1)NO` [STR-V-115], the half-inhibitory concentration (IC50) at HDAC1 turned out to be 427 nM; at HDAC2, 1030 nM; against HDAC6 it was 16.5 nM; at HDAC8 it was 461 nM.

As to `O=C(/C=C/c1ccc(O[C@H]2O[C@H](CO)[C@@H](O)[C@H](O)[C@H]2O)cc1)NO` [STR-V-121], the 50% inhibitory concentration (IC50) against HDAC1 is 3840 nM; against HDAC2, 6500 nM; against HDAC6, 75.4 nM; against HDAC8 it was 1820 nM.

Regarding `O=C(CCCCCCn1cc(-c2ccc(O)cc2)nn1)NO` [STR-V-183, N-hydroxy-7-(4-(4-hydroxyphenyl)-11-1-1,2,3-triazol-1-yl)heptanamide, reference compound], the IC50 on HDAC1 came to 12.2 nM; at HDAC2, 27.2 nM; against HDAC6 it was 1.05 nM; against HDAC8, 1960 nM.
